Results published in patent US5206223A, “Method for inhibiting heparanase activity” (Yeda Research and Development Co. Ltd., priority 1986, dated 1993).
Entries after “also recorded” stand apart in the source; their conditions may differ.

Assays:
heparanase = assay: Inhibition of T lymphocyte heparanase activity (degradation of 35S-labeled heparan sulfate of extracellular matrix); assay type: biochemical; conditions: medium of activated T lymphocytes, 35S-labeled extracellular matrix, various concentrations
Experimental: Heparanase activity was induced into the extracellular medium bathing activated T lymphocytes and tested by incubating the medium with extracellular matrix whose heparan sulfate was labeled with ^35 S as described (Naparstek, Y., Cohen, I. R., Fuks, Z. and I. Vlodavsky. Activated T lymphocytes produce a matrix-degrading heparan sulphate endoglycosidase. Nature 310:241 (1984)). Inhibition of heparanase activity was tested by adding various concentrations of heparin or modified heparins to the reaction mixture and measuring the effect on degradation of the labeled heparin-sulfate as described (Naparstek, Y., Cohen, I. R., Fuks, Z. and I. Vlodavsky.
Activated T lymphocytes produce a matrix-degrading heparan sulphate endoglycosidase, Nature 310:241 (1984)). Totally desulfated heparin and N-desulfated, N-acetylated heparin was prepared as described. (Ayotte, L., A. S. Perlin. NMR spectroscopic observations related to the function of sulfate groups in heparin. Calcium binding vs. biological activity. Carbohydrate Res. 145:267 (1986)).

adjuvant arthritis = assay: Adjuvant arthritis induced with M. tuberculosis; assay type: in vivo, Lewis rats; conditions: for Inhibition of arthritis / Arthritis score (day 60): rat, in vivo; for Arthritis score (day 60): sc
activated T lymphocytes = assay: Traffic of 51Cr-labeled lymphocytes from subcutaneous site and in blood; assay type: in vivo; conditions: rats or mice
Description: To test the effect of modified heparin on T lymphocyte traffic, we labelled the lymphocytes with ^51 Cr and measured the uptake of the labeled lymphocytes from a subcutaneous site and their persistence in the blood.
Furthermore, treatment with the modified heparin led to persistence of labeled lymphocytes in the blood for 4-5 days, while the untreated rats or mice cleared the labeled lymphocytes from the blood in 1 day. Thus, treatment with modified heparin inhibited the ability of T lymphocytes to enter the blood vessels, and once in the blood vessels, prevented the T lymphocytes from exiting. This can be attributed to inhibition of the heparanase enzyme activity needed to penetrate the extracellular matrix of the vessel wall.

skin allografts = assay: Skin allograft survival (SJL/J skin on (BALB/c×C57BL/6)F1 mice); assay type: in vivo; conditions: 10 mg/kg daily, saline control 10 days
Experimental: FIG. 1. Treatment with heparin (0.05 mg/kg) prevents rejection of skin allografts. Mice of hybrid strain (BALB/c×C57BL/6)F1 were grafted with skin from allogeneic SJL/J mice. The mice (20 per group) were treated daily with subcutaneous injections of saline (squares) or with heparin ("Leo", 0.05 mg/kg; diamonds) and scored for skin graft survival. Median survival for the control group was 10 days while that for the heparin treated group was 24 days.
FIG. 2. Treatment with N-desulfated, N-acetylated heparin (10 mg/kg) prevents rejection of skin allografts. Mice were grafted as described for FIG. 1 and treated daily with saline (squares) or N-desulfated, N-acetylated heparin (10 mg/kg; diamonds). The median survival of the skin allograft in the control group was 10 days while that in the treated group was 20 days.
The median survival time of the skin grafts on control mice treated with saline was […] while that on mice treated with 0.05 mg/kg daily of heparin was 26 days with maximal survival to 32 days.

[1] = system: experimental autoimmune encephalomyelitis (EAE); assay: Experimental autoimmune encephalomyelitis (EAE) produced by anti-BP T lymphocytes; assay type: in vivo, Lewis rats; conditions: 10 mg/kg daily
Description: EAE is an experimental autoimmune disease with some features reminiscent of multiple sclerosis in humans. The disease is caused by T lymphocytes immunized to the basic protein (BP) of the central nervous system myelin. To test the effect of heparins on the ability of T lymphocytes to cause autoimmune disease, we used T lymphocytes sensitized against BP, either as T cell lines (Cohen, I. R. Experimental autoimmune encephalomyelitis: Pathogenesis and prevention. In: Immunoregulatory Processes in Multiple Sclerosis and Experimental Allergic Encephalomyelitis. A. A. Vandenbark and J. C. M. Raus, eds. Elsevier Biomedical Res. Amsterdam. 7:91-125 (1985)) or as populations of lymph node cells from BP immunized rats.
EAE was produced by inoculating Lewis rats with a T cell line of anti-BP T lymphocytes (10^6 cells) with anti-BP primed lymph node cells (10^7 cells) intravenously (Cohen, I. R. Experimental autoimmune encephalomyelitis: Pathogenesis and prevention. In: Immunoregulatory Processes in Multiple Sclerosis and Experimental Allergic Encephalomyelitis. A. A. Vandenbark and J. C. M. Raus, eds. Elsevier Biomedical Res. Amsterdam. 7:91-125 (1985)) One day before inoculation and daily for 10 days, the rats received either saline or the heparins.

[2] = rat, in vivo, 10 mg/kg

Substance | Inhibition of degradation of heparan sulfate by heparanase (heparanase) | Inhibition of arthritis (adjuvant arthritis) | Arthritis score (day 60) (adjuvant arthritis) | Persistence of labeled lymphocytes in the site of injection into the tail (activated T lymphocytes; 0.05 mg/kg, control 1-2 days) [days] | Persistence of labeled lymphocytes in the blood (activated T lymphocytes; untreated cleared in 1 day) [days] | Median survival of skin allograft (skin allografts) [days] | Duration of EAE ([1]; A: T cell line, None 4.2) [days] | Day of onset of EAE ([1]; A: T cell line, None 5.2) | % incidence of EAE ([1]; A: T cell line, None 100) [%] | Clinical score of EAE ([1]; A: T cell line, scale 1-4, None 2.4) | % incidence of EAE ([1]; C: primed lymph node cells, None 80) [%] | Anti-coagulant effect (prothrombin time) [2] | Inhibition of adjuvant arthritis (FIG. 4) (adjuvant arthritis; 0.02 mg per rat (0.1 mg/kg) s.c. once daily from day 9, 0.1 mg/kg) | Inhibition of adjuvant arthritis (FIG. 4) (adjuvant arthritis; 0.04 mg s.c. once daily from day 9) | Histologic examination of the joints (adjuvant arthritis; 0.1 mg/kg/day from day 21 to 51, control rats severe signs of inflammation) | Remission of established adjuvant arthritis (FIG. 5) (adjuvant arthritis; 0.1 mg/kg/day s.c. from day 21 to 51)
totally desulfated heparin [Heparin: totally desulfated] | no | no | 5 | – | – | – | – | – | – | – | – | – | – | – | – | –
O-desulfated, N-acetylated heparin | – | yes | 0 | – | – | – | – | – | – | – | – | – | – | – | – | –
N-desulfated heparin | – | no | 5 | – | – | – | – | – | – | – | – | – | – | – | – | –
N-desulfated, N-acetylated heparin | yes | yes | 0 | 5 to 6 | 4 to 5 | 20 | 1.8 | 6.4 | 50 | 0.8 | 0 | no anti-coagulant effect | significant inhibition of arthritis; also recorded: maximum effect | ineffective | healthy joints | early remission of established adjuvant arthritis
